From ChEMBL document CHEMBL1201862, “PubChem BioAssay data set” (2004)
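Where inhibition never reached the appropriate level, the endpoint shown equals the highest concentration tested. Otherwise, values were interpolated linearly from a five-concentration, 48-hour dose response in 96-well plates. GI50 is the concentration that inhibits growth by half.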 Calls of active or inactive are those of the source. Rule as the data show it: active = GI50 up to about 1.1 µM and inactive = higher.

What was measured:
Test in all cases: NCI anticancer screen, dose series, 48 h
A498 = tested on: A498
A549 = tested on: A549
CAKI-1 = tested on: CAKI-1
COLO 205 = tested on: COLO 205
HCT-116 = tested on: HCT-116
HT-29 = tested on: HT-29
KM12 = tested on: KM12
LOX IMVI = tested on: LOX IMVI
NCI-H460 = tested on: NCI-H460
RPMI-8226 = tested on: RPMI-8226
SF-268 = tested on: SF-268
SK-MEL-28 = tested on: SK-MEL-28
SK-OV-3 = tested on: SK-OV-3
SNB-19 = tested on: SNB-19
SNB-75 = tested on: SNB-75
UACC-257 = tested on: UACC-257
UO-31 = tested on: UO-31
TK-10 = tested on: TK-10

Compound	GI50 (A498)	GI50 (A549)	GI50 (CAKI-1)	GI50 (COLO 205)	GI50 (HCT-116)	GI50 (HT-29)	GI50 (KM12)	GI50 (LOX IMVI)	GI50 (NCI-H460)	GI50 (RPMI-8226)	GI50 (SF-268)	GI50 (SK-MEL-28)	GI50 (SK-OV-3)	GI50 (SNB-19)	GI50 (SNB-75)	GI50 (UACC-257)	GI50 (UO-31)	GI50 (TK-10)
O=C(N[C@@H](c1ccccc1)[C@@H](O)C(=O)OCc1ccc2c(c1)OCO2)c1ccccc1	> 100 µM (inactive)	> 100 µM (inactive)	1 µM (active)	> 100 µM (inactive)	> 100 µM (inactive)	> 100 µM (inactive)	> 100 µM (inactive)	> 100 µM (inactive)	> 100 µM (inactive)	> 100 µM (inactive)	> 100 µM (inactive)	> 100 µM (inactive)	> 100 µM (inactive)	> 100 µM (inactive)	> 90.4 µM (inactive)	> 100 µM (inactive)	> 91.6 µM (inactive)	–
CC1C(=O)CC(c2cccs2)N(N=O)C1c1cccs1 (configuration not stated)	13.7 µM (inactive)	58.3 µM (inactive)	> 100 µM (inactive)	53.1 µM (inactive)	46.2 µM (inactive)	23.5 µM (inactive)	54.1 µM (inactive)	56.5 µM (inactive)	34.8 µM (inactive)	23.7 µM (inactive)	97.3 µM (inactive)	53.2 µM (inactive)	29.8 µM (inactive)	> 85.3 µM (inactive)	33.1 µM (inactive)	39.1 µM (inactive)	43.6 µM (inactive)	–
CC1OC=CC(=O)C1O (configuration not stated)	–	> 100 µM (inactive)	–	–	–	> 100 µM (inactive)	> 100 µM (inactive)	> 100 µM (inactive)	> 100 µM (inactive)	–	–	> 100 µM (inactive)	> 100 µM (inactive)	–	> 100 µM (inactive)	> 100 µM (inactive)	> 100 µM (inactive)	> 100 µM (inactive)
CCOC(=O)/C=C/c1c[nH]c(=O)[nH]c1=O	> 75 µM (inactive)	> 75 µM (inactive)	> 75 µM (inactive)	> 75 µM (inactive)	> 75 µM (inactive)	> 75 µM (inactive)	> 75 µM (inactive)	> 75 µM (inactive)	> 75 µM (inactive)	> 39.4 µM (inactive)	> 75 µM (inactive)	> 75 µM (inactive)	> 41.5 µM (inactive)	> 75 µM (inactive)	> 72.6 µM (inactive)	> 75 µM (inactive)	> 75 µM (inactive)	–
CCOC(=O)C1=C(Nc2ccc(Cl)cc2Cl)OC/C1=N\NS(=O)(=O)c1ccc(C)cc1	> 100 µM (inactive)	> 100 µM (inactive)	> 100 µM (inactive)	> 100 µM (inactive)	> 100 µM (inactive)	> 100 µM (inactive)	> 100 µM (inactive)	> 100 µM (inactive)	> 100 µM (inactive)	–	> 100 µM (inactive)	> 100 µM (inactive)	> 100 µM (inactive)	> 100 µM (inactive)	> 100 µM (inactive)	> 100 µM (inactive)	> 100 µM (inactive)	> 100 µM (inactive)
CCOC(=O)NC(=O)c1cn(CCSCCOC(=O)NCCCCCCNC(=O)OCCSCCn2cc(C(=O)NC(=O)OCC)c(=O)n(C)c2=O)c(=O)n(C)c1=O	–	45.2 µM (inactive)	–	56.2 µM (inactive)	19.2 µM (inactive)	52.5 µM (inactive)	–	32.1 µM (inactive)	29.9 µM (inactive)	20.5 µM (inactive)	24 µM (inactive)	41.8 µM (inactive)	34.7 µM (inactive)	34 µM (inactive)	> 100 µM (inactive)	24.4 µM (inactive)	> 100 µM (inactive)	44.3 µM (inactive)
CC1(c2cc3c(cc2Br)OCO3)SCCCS1	58.5 µM (inactive)	34.5 µM (inactive)	–	51.4 µM (inactive)	31.7 µM (inactive)	32.1 µM (inactive)	51.4 µM (inactive)	40 µM (inactive)	36.2 µM (inactive)	27.4 µM (inactive)	44.6 µM (inactive)	78 µM (inactive)	> 100 µM (inactive)	47.4 µM (inactive)	40.6 µM (inactive)	–	24.2 µM (inactive)	33.4 µM (inactive)
O=C(O)COc1ccccc1C(=O)Nc1ccccc1	–	> 100 µM (inactive)	> 100 µM (inactive)	> 100 µM (inactive)	> 100 µM (inactive)	> 100 µM (inactive)	> 100 µM (inactive)	> 100 µM (inactive)	> 100 µM (inactive)	> 100 µM (inactive)	> 100 µM (inactive)	> 100 µM (inactive)	> 100 µM (inactive)	> 100 µM (inactive)	77.8 µM (inactive)	> 100 µM (inactive)	> 100 µM (inactive)	> 100 µM (inactive)
CN(C)/N=C(\CCN1CCCC1)CC(c1ccccc1)c1c(O)c2ccccc2oc1=O (configuration not stated)	–	> 100 µM (inactive)	> 100 µM (inactive)	> 100 µM (inactive)	> 100 µM (inactive)	> 100 µM (inactive)	–	> 100 µM (inactive)	–	> 100 µM (inactive)	> 100 µM (inactive)	> 100 µM (inactive)	> 100 µM (inactive)	> 100 µM (inactive)	58.2 µM (inactive)	> 100 µM (inactive)	–	> 100 µM (inactive)
CC1=C[C@@H]2Cc3occc3C(C)(C)[C@@H]2CC1	21.8 µM (inactive)	22.9 µM (inactive)	23.4 µM (inactive)	18.9 µM (inactive)	19.4 µM (inactive)	16.6 µM (inactive)	16.9 µM (inactive)	19.2 µM (inactive)	–	–	20.2 µM (inactive)	24 µM (inactive)	38.1 µM (inactive)	> 10 µM (inactive)	18.1 µM (inactive)	22.5 µM (inactive)	19.2 µM (inactive)	22.4 µM (inactive)
CC(=O)C(=Cc1cn(C)c(=O)n(C)c1=O)C(C)=O	101 µM (inactive)	157 µM (inactive)	83 µM (inactive)	80.9 µM (inactive)	87.5 µM (inactive)	113 µM (inactive)	85.1 µM (inactive)	71.1 µM (inactive)	92.3 µM (inactive)	89.9 µM (inactive)	148 µM (inactive)	100 µM (inactive)	99.8 µM (inactive)	125 µM (inactive)	65 µM (inactive)	85.9 µM (inactive)	83.8 µM (inactive)	–
C#Cc1c(C)c(/C=C/C(C)=C/C=C/C(C)=C/C(=O)OC)n(C)c1C	–	> 100 µM (inactive)	> 100 µM (inactive)	> 100 µM (inactive)	> 100 µM (inactive)	> 100 µM (inactive)	> 100 µM (inactive)	> 100 µM (inactive)	> 100 µM (inactive)	> 100 µM (inactive)	> 100 µM (inactive)	> 100 µM (inactive)	0.428 µM (active)	> 100 µM (inactive)	44.5 µM (inactive)	> 100 µM (inactive)	> 100 µM (inactive)	> 100 µM (inactive)
CCOC(=O)C1=C(C)N(NC(N)=O)C(C)(O)C12CCOC2=O (configuration not stated)	> 100 µM (inactive)	> 100 µM (inactive)	> 100 µM (inactive)	–	> 100 µM (inactive)	> 100 µM (inactive)	> 100 µM (inactive)	> 100 µM (inactive)	> 100 µM (inactive)	> 100 µM (inactive)	> 100 µM (inactive)	> 100 µM (inactive)	> 100 µM (inactive)	> 100 µM (inactive)	> 100 µM (inactive)	> 100 µM (inactive)	> 100 µM (inactive)	–
CCCCCCCCOC(CO)CO	> 100 µM (inactive)	> 100 µM (inactive)	> 100 µM (inactive)	> 100 µM (inactive)	> 100 µM (inactive)	> 100 µM (inactive)	–	> 100 µM (inactive)	> 100 µM (inactive)	> 100 µM (inactive)	> 100 µM (inactive)	> 100 µM (inactive)	> 100 µM (inactive)	> 100 µM (inactive)	–	> 100 µM (inactive)	> 100 µM (inactive)	> 100 µM (inactive)
O=c1nc(-c2ccccc2)scc1-c1ccccc1	–	> 100 µM (inactive)	> 100 µM (inactive)	> 100 µM (inactive)	> 100 µM (inactive)	> 100 µM (inactive)	> 100 µM (inactive)	–	> 100 µM (inactive)	> 100 µM (inactive)	86.3 µM (inactive)	> 100 µM (inactive)	> 100 µM (inactive)	59.7 µM (inactive)	> 100 µM (inactive)	> 100 µM (inactive)	> 100 µM (inactive)	> 100 µM (inactive)
CCCCCCc1cn([C@H]2C[C@H](O)[C@@H](CO)O2)c(=O)[nH]c1=O	> 100 µM (inactive)	> 100 µM (inactive)	> 100 µM (inactive)	–	> 100 µM (inactive)	> 100 µM (inactive)	> 100 µM (inactive)	> 100 µM (inactive)	> 100 µM (inactive)	> 100 µM (inactive)	> 100 µM (inactive)	> 100 µM (inactive)	> 10 µM (inactive)	> 100 µM (inactive)	> 100 µM (inactive)	> 100 µM (inactive)	> 100 µM (inactive)	–
COC(=O)C1CCC[C@H]2C(CO)=C(C)C(=O)[C@@H]12 (some centres not stated)	> 100 µM (inactive)	> 100 µM (inactive)	> 100 µM (inactive)	> 100 µM (inactive)	> 100 µM (inactive)	> 100 µM (inactive)	> 100 µM (inactive)	–	> 100 µM (inactive)	> 100 µM (inactive)	> 100 µM (inactive)	> 100 µM (inactive)	> 100 µM (inactive)	> 100 µM (inactive)	> 100 µM (inactive)	> 100 µM (inactive)	> 100 µM (inactive)	> 100 µM (inactive)
